In US20080194546A1, “Pyrido-, Pyrazo- and Pyrimido-Pyrimidine Derivatives as mTOR Inhibitors” (KuDOS Pharmaceuticals Limited, priority 2005, published 2008):
Read-outs that look alike come from different tables or passages of the source.

Columns and labels:
mTOR = molecular target: T1, mTOR (Homo sapiens, UniProt P42345); assay: Biological Assay: mTOR enzyme activity, mTOR immunoprecipitated from HeLa cell cytoplasmic extract, recombinant PHAS-1 as substrate; type: biochemical
T1 construct: mTOR protein was isolated from HeLa cell cytoplasmic extract by immunoprecipitation; endogenous in cells; host or cells: HeLa cell cytoplasmic extract (immunoprecipitate)
From the text: For mTOR enzyme activity assays, mTOR protein was isolated from HeLa cell cytoplasmic extract by immunoprecipitation, and activity determined essentially as described previously using recombinant PHAS-1 as a substrate (ref. 21).

[1] = molecular target: recombinant mTOR (FLAG-tagged, amino acid residues 1362 to 2549) (Homo sapiens, UniProt P42345); assay: Alternative Enzyme Assay: AlphaScreen, inhibition of phosphorylation by recombinant mTOR; type: biochemical
T47D cells = assay: Cell Proliferation Assay (GI50), sulforhodamine B (SRB) assay; type: cell-based; conditions: Homo sapiens, 120 hours, SRB
Procedure: Cell growth was assessed using the sulforhodamine B (SRB) assay (A). T47D (ECACC, 85102201) cells were routinely passaged in RPMI (Invitrogen, 42401018) plus 10% foetal calf serum (FCS), 1% L-glutamine (Gibco BRL, 25030) to a confluence not greater than 80%. To undertake the assay, T47D cells were seeded at 2.5×10^3 cells/well in […] RPMI plus 10% foetal calf serum, 1% L-glutamine in 96 well plates (Costar, 3904) and incubated at 37° C. (+5% CO2) in a humidified incubator. Once the cells had fully adhered (typically following 4-5 hours incubation) the plate was removed from the incubator and 10 μL of the diluent added to the control wells (A1-12 and B1-12). Compound was prepared in a six point semi-log dilution at 10× the final concentration required e.g. for a 6 point range of 30 μM to 100 nM in semi-log steps dilution started at 300 μM in stock plate. Dosing was completed by addition of 10 μL of compound at highest concentration to C1-12 through to the lowest concentration in H1-12. The plates were then incubated for 120 hours prior to SRB analysis.
Upon completion of incubation, media was removed and the cells fixed with […] of ice cold 10% (w/v) trichloroacetic acid. The plates were incubated at 4° C. for 20 minutes and then washed four times with water. Each well of cells was then stained with 100 μl of 0.4% (w/v) SRB (Sulforhodamine B, Sigma, Poole, Dorset, UK, Catalogue number S-9012) in 1% acetic acid for 20 minutes before washing four times with 1% acetic acid. Plates were then dried for 2 hours at room temperature. The dye from the stained cells was solubilized by the addition of 100 μl of 10 mM Tris Base into each well. Plates were gently shaken and left at room temperature for 30 minutes before measuring the optical density at 564 nm on a Microquant microtiter plate reader. The concentration of inhibitor eliciting a 50% reduction in growth (GI50) was determined by analysis of staining intensity of the treated cells as a percentage of the vehicle control wells using Excelfit software.
(A) Skehan, P., Storung, R., Scudiero, R., Monks, A., McMahon, J., Vistica, D., Warren, J. T., Bokesch, H., Kenny, S. and Boyd, M. R. (1990) New […] cytotoxicity assay for anticancer-drug screening. J. Natl. Cancer Inst. 82, 1107-1112.

[2] = test system: phosphorylation of Serine 473 in Akt in MDA-MB-468 cells; assay: In Vitro phospho-Ser473 Akt Assay (Acumen Explorer); type: cell-based; conditions: Homo sapiens, MDA-MB-468 cells
[3] = Biological Assay, upper bounds, read-out: IC50 values against mTOR
[4] = AlphaScreen, ATP 20 μM, read-out: IC50, tested in Alternative Enzyme Assay
[5] = 2 hours, read-out: IC50, phospho-Ser473 Akt assay (cellular IC50, measured by pAkt)
[6] = Alternative Enzyme Assay, read-out: IC50 values against mTOR
[7] = Alternative Enzyme Assay, upper bounds, read-out: IC50 values against mTOR
[8] = compounds of Formula I(B), read-out: IC50 values against mTOR (phospho-Ser473 Akt assay)
[9] = mTOR from HeLa extract, PHAS-1 substrate, read-out: IC50, tested in the Biological Assay

Compound	IC50 [2, 5] [nM]	IC50 [1, 6] [nM]	IC50 [1, 7] [nM]	other results
C[C@@H]1CN(c2nc(N3CCOCC3)c3ccc(-c4ccc(Cl)cc4)nc3n2)C[C@H](C)O1 [Example 1b]				IC50 (mTOR; [3]): < 100 nM; IC50 [1, 4]: 57 nM
COc1ccc(-c2ccc3c(N4CCOCC4)nc(N4C[C@@H](C)O[C@@H](C)C4)nc3n2)cc1CNC(Cc1ccc([N+](=O)[O-])cc1)C(=O)O (some centres unmarked) [Example 8y]				GI50 (T47D cells): < 1000 nM; IC50 (mTOR; [3]): < 1000 nM
C[C@@H]1CN(c2nc(N3CCOCC3)c3ccc(-c4ccoc4CO)nc3n2)C[C@H](C)O1 [Example 1bi]	< 25000	< 300		
COc1ccc(-c2ccc3c(N4CCOCC4)nc(-c4cccc(O)c4)nc3n2)cc1CO [Example 9i]	< 2500	< 300	< 10000	
CC(C)Oc1ccc(-c2ccc3c(N4CCOCC4)nc(N4C[C@@H](C)O[C@@H](C)C4)nc3n2)cc1 [Example 1bd]	< 25000	< 300	< 10000	
OCc1cccc(-c2nc(N3CCOCC3)c3ccc(-c4ccc(Cl)cc4)nc3n2)c1 [Example 9m]	< 2500		< 1000	
COc1ccc(-c2ccc3c(N4CCOCC4)nc(-c4cccc(C=O)c4)nc3n2)cc1CO [Example 9g]	< 2500	< 300	< 10000	
C[C@H]1COCCN1c1nc(N2CCOC[C@@H]2C)c2ccc(-c3cccc(Cl)n3)nc2n1 [Example 11v]		< 300		IC50 ([2]; compounds of Formula I(B), upper bounds, read-out: IC50 values against mTOR (phospho-Ser473 Akt assay)): < 11000 nM; IC50 [1, 4]: 180 nM
COc1ccc(-c2ccc3c(N4CCOCC4)nc(-c4cc(N)cc(C(=O)O)c4)nc3n2)cc1CO [Example 9a]	< 25000	< 300	< 10000	
COc1ccc(-c2ccc3c(N4CCOCC4)nc(-c4cccc(CN)c4)nc3n2)cc1CO [Example 9n]	< 2500		< 1000	
COc1ccc(-c2ccc3c(N4CCOCC4)nc(-c4cccc(C)c4)nc3n2)cc1CO [Example 9d]	< 25000	< 300	< 10000	
COc1ccc(-c2ccc3c(N4CCOC[C@@H]4C)nc(-c4cccc(N)c4)nc3n2)cc1CO [Example 29f]		< 100		IC50 [2, 8]: < 300 nM; IC50 [1, 4]: 96 nM
COc1ccc(-c2ccc3c(N4CCOCC4)nc(-c4cccc(N)c4)nc3n2)cc1CO [Example 9l]	< 2500	< 300		
CCOc1ccc(-c2ccc3c(N4CCOCC4)nc(N4C[C@@H](C)O[C@@H](C)C4)nc3n2)cc1 [Example 1br]	< 2500		< 1000	
CCC1CCCCN1c1nc(N2CCOC[C@@H]2C)c2ccc(-c3ccc(OC)c(CO)c3)nc2n1 (some centres unmarked) [Example 11c]		< 300		IC50 (mTOR; [9]): 1.84 nM; IC50 [2, 8]: < 100 nM
COC(=O)c1cccc(-c2nc(N3CCOCC3)c3ccc(-c4ccc(Cl)cc4)nc3n2)c1 [Example 9ad]			< 1000	
C[C@@H]1CN(c2nc(N3CCOCC3)c3ccc(-c4ccc(OCc5ccccc5)cc4)nc3n2)C[C@H](C)O1 [Example 1bf]		< 300		
C[C@@H]1CN(c2nc(N3CCOCC3)c3ccc(-c4ccc(OCC5CCCCC5)cc4)nc3n2)C[C@H](C)O1 [Example 1bk]			< 1000	
COc1ccc(-c2ccc3c(N4CCOCC4)nc(-c4cccc(-c5ccccc5)c4)nc3n2)cc1CO [Example 9o]			< 10000	
Clc1ccc(-c2ccc3c(N4CCOCC4)nc(-c4cccc(-c5ccccc5)c4)nc3n2)cc1 [Example 9aa]	< 25000		< 1000	

Compound	IC50 [2, 5] [nM]	IC50 [1, 6] [nM]	IC50 [1, 7] [nM]	other results
COc1ccc(-c2ccc3c(N4CCOCC4)ncnc3n2)cc1CO [Example 1bj]	< 25000	< 300		
C[C@@H]1CN(c2ccc3c(N4CCOCC4)nc(-c4ccc(Cl)cc4)nc3n2)C[C@H](C)O1 [Example 9s]			< 10000	
COc1ccc(-c2ccc3c(N4CCOC[C@@H]4C)nc(N4C[C@@H](C)O[C@@H](C)C4)nc3n2)cc1CO [Example 11b]		< 100		IC50 (mTOR; [9]): 1.85 nM; IC50 [2, 8]: < 100 nM
C[C@H]1COCCN1c1nc(N2CCOC[C@@H]2C)c2ccc(-c3ccc(F)c(C#N)c3)nc2n1 [Example 11av, 5-[2,4-bis-((S)-3-methyl-morpholin-4-yl)-pyrido[2,3-d]pyrimidin-7-yl]-2-fluoro-benzonitrile]		< 300		IC50 [2, 8]: < 300 nM
C[C@H]1COCCN1c1nc(N2CCOCC2)c2ccc(-c3ccc(Cl)cc3)nc2n1 [Example 1be]	< 2500	< 300	< 10000	
C[C@@H]1CN(c2nc(N3CCOCC3)c3ccc(-c4ccc(OCc5ccc(F)c(F)c5)cc4)nc3n2)C[C@H](C)O1 [Example 1bw]			< 10000	
COc1ccc(-c2ccc3c(N4CCOCC4)nc(-c4cccc(C(N)=O)c4)nc3n2)cc1CO [Example 9k]	< 2500	< 300		
COc1cccc(-c2nc(N3CCOCC3)c3ccc(-c4ccc(OC)c(CO)c4)nc3n2)c1 [Example 9e]	< 25000	< 300	< 10000	
COc1ccc(-c2ccc3c(N4CCOCC4)nc(-c4cccc(C#N)c4)nc3n2)cc1CO [Example 9j]	< 25000	< 300	< 10000	
CC(Oc1ccc(-c2ccc3c(N4CCOCC4)nc(N4C[C@@H](C)O[C@@H](C)C4)nc3n2)cc1)c1ccccc1 (some centres unmarked) [Example 1bv]			< 10000	
C[C@@H]1CN(c2nc(N3CCOCC3)c3ccc(-c4ccc(OC5C=CCCC5)cc4)nc3n2)C[C@H](C)O1 (some centres unmarked) [Example 1bl]			< 10000	
C[C@@H]1CN(c2nc(N3CCOCC3)c3ccc(-c4cccc(/C=N/O)c4)nc3n2)C[C@H](C)O1 [Example 1bg]	< 2500	< 300		
COCc1cccc(-c2nc(N3CCOCC3)c3ccc(-c4ccc(OC)c(CO)c4)nc3n2)c1 [Example 9h]	< 2500	< 300		
C/C(=N/O)c1cccc(-c2ccc3c(N4CCOCC4)nc(N4C[C@@H](C)O[C@@H](C)C4)nc3n2)c1 [Example 1bh]	< 25000	< 300		
CCCOc1ccc(-c2ccc3c(N4CCOCC4)nc(N4C[C@@H](C)O[C@@H](C)C4)nc3n2)cc1 [Example 1bn]			< 1000	
Clc1ccc(-c2ccc3c(N4CCOCC4)nc(-c4cccnc4)nc3n2)cc1 [Example 9t]			< 10000	
COc1ccc(-c2ccc3c(N4CCOCC4)nc(-c4cccc(C(F)(F)F)c4)nc3n2)cc1CO [Example 9r]	< 25000		< 1000	
Cc1cccc(-c2nc(N3CCOCC3)c3ccc(-c4ccc(Cl)cc4)nc3n2)c1 [Example 9y]			< 10000	
COc1ccc(-c2ccc3c(N4CCOCC4)nc(-c4ccco4)nc3n2)cc1CO [Example 9f]	< 25000	< 300	< 10000	
